Source: BindingDB's records for doi:10.1021/jm020072w (University of California, 2002)

target: juvenile hormone esterase (Trichoplusia ni); assay: In vitro inhibition of Trichoplusia Juvenile Hormone Esterase.

| SMILES | IC50 |
| --- | --- |
| CCCCCC[Se](=O)CC(=O)C(F)(F)F (configuration not stated) | 0.000537 µM |
| CCCCCCC#CC(=O)C(F)(F)F | 0.398 µM |
| CCCCCCC=CC(=O)C(F)(F)F | 79.4 µM |

More lines, now with the values ahead:

| IC50 | SMILES |
| --- | --- |
| 10 µM | CCCCCCCCC(=O)C(F)F |
| 0.0832 µM | CCCCCCOCC(=O)C(F)(F)F |
| 490 µM | CCCCCCOCC(C)=O |
| 6.76 µM | CCCCCCCCC(=O)C(F)(F)F |
